The values that follow come from patent publication US20180243298A1, “TRPV3 MODULATORS” (AbbVie Inc., priority 2015, published 2018).

By IC50 is commonly meant the concentration that gives 50% inhibition.

The assay has as its target T1, human TRPV3 (Homo sapiens, UniProt Q8NET8).
T1 construct: expressed in transfected cells; host or cells: HEK293
T1 sequence (Q8NET8 1-790): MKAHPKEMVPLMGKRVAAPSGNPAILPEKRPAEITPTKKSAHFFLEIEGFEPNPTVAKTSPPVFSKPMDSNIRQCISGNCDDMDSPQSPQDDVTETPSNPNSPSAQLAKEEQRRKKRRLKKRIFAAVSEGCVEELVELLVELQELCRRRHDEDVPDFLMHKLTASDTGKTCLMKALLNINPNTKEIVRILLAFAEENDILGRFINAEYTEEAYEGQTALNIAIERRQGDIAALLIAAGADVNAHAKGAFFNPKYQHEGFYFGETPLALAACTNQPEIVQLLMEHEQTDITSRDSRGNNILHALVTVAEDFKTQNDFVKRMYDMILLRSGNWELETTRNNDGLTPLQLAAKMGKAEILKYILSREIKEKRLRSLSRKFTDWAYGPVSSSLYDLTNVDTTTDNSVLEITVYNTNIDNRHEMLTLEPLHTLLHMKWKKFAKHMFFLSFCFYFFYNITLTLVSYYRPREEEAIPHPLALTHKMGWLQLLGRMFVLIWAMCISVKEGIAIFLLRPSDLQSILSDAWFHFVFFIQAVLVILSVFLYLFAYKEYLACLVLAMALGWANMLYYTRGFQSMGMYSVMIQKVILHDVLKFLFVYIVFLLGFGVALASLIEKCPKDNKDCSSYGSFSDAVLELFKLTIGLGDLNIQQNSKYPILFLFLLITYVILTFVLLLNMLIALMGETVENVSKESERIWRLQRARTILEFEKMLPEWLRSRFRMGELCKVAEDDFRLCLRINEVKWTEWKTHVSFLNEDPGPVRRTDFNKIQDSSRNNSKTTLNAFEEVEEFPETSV
In words: Calcium flux assay (FLIPR TETRA), recombinant HEK293 cells expressing TRPV3, 2-APB response. It counts as cell-based. The note with it: 2-APB at its EC80. The protocol: (i) In Vitro Methods-Calcium Flux Assays:
Experiments were conducted using the FLIPR TETRA®. On the day prior to the experiment, recombinant HEK293 cells that stably express human and mouse TRPV3 were removed from tissue culture flasks and plated in growth medium at 20,000 cells/well into black-walled clear-bottom 384-well BIOCOAT™ poly-D-lysine assay plates (BD Biosciences, Bedford, Mass.) using a MULTIDROP® dispenser (ThermoScientific, Waltham, Mass.). On the day of the experiment, growth medium was removed, and the no-wash FLIPR® Calcium-4 dye (λEX=470-495 nm, λEM=515-575 nm; Molecular Devices, Sunnyvale, Calif.) was added to each well using the MULTIDROP® dispenser. Cells were incubated for 90-120 minutes in the dark. The compounds were dissolved in DMSO to prepare a 10 mM stock solution. The intensity of the fluorescence was captured and digitally transferred to an interfaced PC. The peak increase in fluorescence over baseline, measured in relative fluorescence units, was calculated and expressed as the percentage of the maximal 2-APB (2-aminoethoxyldiphenyl borate) response (in the absence of compound). The concentration of 2-APB corresponds to its EC80.
On the technique in general: A change in cytosolic calcium serves as a functional read-out for many receptors and channels.
Regarding `CCOc1ncnc(OC)c1C(=O)Nc1nc(C(F)(F)F)c(CC)s1` [Example 70, 4-ethoxy-N-[5-ethyl-4-(trifluoromethyl)-1,3-thiazol-2-yl]-6-methoxypyrimidine-5-carboxamide], the IC50 is under 50 nM.

Turning to `COc1ncnc(OC)c1C(=O)Nc1nc(C2CC2)c(Cc2ccc(F)cc2)s1` [Example 190, N-[4-cyclopropyl-5-(4-fluorobenzyl)-1,3-thiazol-2-yl]-4,6-dimethoxypyrimidine-5-carboxamide], the IC50 was 50 to 100 nM.

Take `COc1ncnc(OC)c1C(=O)Nc1nc(C(F)(F)F)c(-c2cnc(C#N)nc2)s1` [Example 162, N-[5-(2-cyanopyrimidin-5-yl)-4-(trifluoromethyl)-1,3-thiazol-2-yl]-4,6-dimethoxypyrimidine-5-carboxamide]: the IC50 fell in the range of 100 to 500 nM.

For the molecule `COc1ncnc(OC)c1C(=O)Nc1nc(C(F)(F)F)c(-c2cnco2)s1` [Example 140, 4,6-dimethoxy-N-[5-(1,3-oxazol-5-yl)-4-(trifluoromethyl)-1,3-thiazol-2-yl]pyrimidine-5-carboxamide], the IC50 lay within 50 to 100 nM.

With `COc1ncnc(OC)c1C(=O)Nc1nc(C(F)(F)F)c(-c2cnc(C#N)c(OCC3COC3)c2)s1` [Example 205, N-(5-(6-cyano-5-(oxetan-3-yl-methoxy)pyridine-3-yl)-4-(trifluoromethyl)thiazol-2-yl)-4,6-dimethoxypyrimidine-5-carboxamide], the half-inhibitory concentration (IC50) is 100 to 500 nM.

Regarding `COc1ncnc(OC)c1C(=O)Nc1nc(C)c(C)s1` [Example 9, N-(4,5-dimethyl-1,3-thiazol-2-yl)-4,6-dimethoxypyrimidine-5-carboxamide], the IC50 is over 1000 nM.

With `COc1ncnc(OC)c1C(=O)Nc1nc(C(F)(F)F)c(-c2ocnc2C)s1` [Example 141, 4,6-dimethoxy-N-[5-(4-methyl-1,3-oxazol-5-yl)-4-(trifluoromethyl)-1,3-thiazol-2-yl]pyrimidine-5-carboxamide], the IC50 lay within 50 to 100 nM.

For `COc1ncnc(OC)c1C(=O)Nc1nc(C(F)(F)F)c(-c2ccnc3ccccc23)s1` [Example 167, 4,6-dimethoxy-N-[5-(quinolin-4-yl)-4-(trifluoromethyl)-1,3-thiazol-2-yl]pyrimidine-5-carboxamide], the IC50 is under 50 nM.

Regarding `COc1ncnc(OC)c1C(=O)Nc1nc(C(F)(F)F)c(C(C)(C)O)s1` [Example 116, N-[5-(2-hydroxypropan-2-yl)-4-(trifluoromethyl)-1,3-thiazol-2-yl]-4,6-dimethoxypyrimidine-5-carboxamide], the IC50 was over 1000 nM.

Turning to `CCCc1sc(NC(=O)c2c(OC)ncnc2OC)nc1C(F)(F)F` [Example 34, 4,6-dimethoxy-N-[5-propyl-4-(trifluoromethyl)-1,3-thiazol-2-yl]pyrimidine-5-carboxamide], the IC50 was under 50 nM.

For `COc1ncnc(OC)c1C(=O)Nc1nc(C2CCC2)c(C#N)s1` [Example 102, N-(5-cyano-4-cyclobutyl-1,3-thiazol-2-yl)-4,6-dimethoxypyrimidine-5-carboxamide], the IC50 was 100 to 500 nM.

For `CCn1nccc1-c1sc(NC(=O)c2c(OC)ncnc2OC)nc1C(F)(F)F` [Example 142, N-[5-(1-ethyl-1H-pyrazol-5-yl)-4-(trifluoromethyl)-1,3-thiazol-2-yl]-4,6-dimethoxypyrimidine-5-carboxamide], the IC50 is 100 to 500 nM.

Consider `CCOC(=O)c1sc(NC(=O)c2c(OC)ncnc2OC)nc1C(C)(C)C` [Example 193, ethyl 4-tert-butyl-2-{[(4,6-dimethoxypyrimidin-5-yl)carbonyl]amino}-1,3-thiazole-5-carboxylate], for which the IC50 was under 50 nM.

Consider `COc1ncnc(OC)c1C(=O)Nc1nc(-c2ccc(C(F)(F)F)cn2)c(C#N)s1` [Example 97, N-{5-cyano-4-[5-(trifluoromethyl)pyridin-2-yl]-1,3-thiazol-2-yl}-4,6-dimethoxypyrimidine-5-carboxamide], for which the IC50 fell in the range of 50 to 100 nM.

In the case of `COc1ncnc(OC)c1C(=O)Nc1nc(C(F)(F)F)c(C2CCOC2)s1` (stereo not shown) [Example 146, 4,6-dimethoxy-N-[5-(tetrahydrofuran-3-yl)-4-(trifluoromethyl)-1,3-thiazol-2-yl]pyrimidine-5-carboxamide], the IC50 was 100 to 500 nM.

As for `COc1ncnc(OC)c1C(=O)Nc1nc(C(F)(F)F)c(-c2cccc(NS(=O)(=O)N(C)C)c2)s1` [Example 201, N-[5-{3-[(dimethylsulfamoyl)amino]phenyl}-4-(trifluoromethyl)-1,3-thiazol-2-yl]-4,6-dimethoxypyrimidine-5-carboxamide], the IC50 fell in the range of 50 to 100 nM.

For `COc1ncnc(OC)c1C(=O)Nc1nc(C(F)(F)F)c(-c2cncc(OC(C)C)c2)s1` [Example 156, 4,6-dimethoxy-N-{5-[5-(propan-2-yloxy)pyridin-3-yl]-4-(trifluoromethyl)-1,3-thiazol-2-yl}pyrimidine-5-carboxamide], the IC50 is under 50 nM.

Consider `CO/N=C(/C)c1sc(NC(=O)c2c(OC)ncnc2OC)nc1C(F)(F)F` [Example 136, 4,6-dimethoxy-N-{5-[(1Z)—N-methoxyethanimidoyl]-4-(trifluoromethyl)-1,3-thiazol-2-yl}pyrimidine-5-carboxamide], for which the IC50 was under 50 nM.

As for `COc1ncnc(OC)c1C(=O)Nc1nc(C(F)(F)F)c(-c2ccnn2C(C)C)s1` [Example 180, 4,6-dimethoxy-N-{5-[1-(propan-2-yl)-1H-pyrazol-5-yl]-4-(trifluoromethyl)-1,3-thiazol-2-yl}pyrimidine-5-carboxamide], the IC50 is under 50 nM.

Regarding `COc1ncnc(OC)c1C(=O)Nc1nc(C(F)(F)F)c(C2(O)CCC2)s1` [Example 119, N-[5-(1-hydroxycyclobutyl)-4-(trifluoromethyl)-1,3-thiazol-2-yl]-4,6-dimethoxypyrimidine-5-carboxamide], the IC50 was over 1000 nM.

Take `COc1ncnc(OC)c1C(=O)Nc1nc(C(F)(F)F)c(-c2c[nH]c3cc(C#N)ccc23)s1` [Example 44, N-[5-(6-cyano-1H-indol-3-yl)-4-(trifluoromethyl)-1,3-thiazol-2-yl]-4,6-dimethoxypyrimidine-5-carboxamide]: the IC50 is 100 to 500 nM.

Regarding `COc1ncnc(OC)c1C(=O)Nc1nc(C(F)(F)F)c([C@@H]2CCCOC2)s1` (single isomer, unassigned) [Example 150], the IC50 lay within 100 to 500 nM.

Consider `COc1ncnc(OC)c1C(=O)Nc1nc(C(F)(F)F)c(CN2CC[C@H](F)C2)s1` [Example 57, N-[5-{[(3 S)-3-fluoropyrrolidin-1-yl]methyl}-4-(trifluoromethyl)-1,3-thiazol-2-yl]-4,6-dimethoxypyrimidine-5-carboxamide], for which the IC50 lay within 100 to 500 nM.

On to `COc1ncnc(OC)c1C(=O)Nc1nc(-c2ccc(C(F)(F)F)cn2)c(CCCO)s1` [Example 96, N-{5-(3-hydroxypropyl)-4-[5-(trifluoromethyl)pyridin-2-yl]-1,3-thiazol-2-yl}-4,6-dimethoxypyrimidine-5-carboxamide], for which the IC50 was 100 to 500 nM.

`COc1ncnc(OC)c1C(=O)Nc1nc(C(F)(F)F)c(-c2cccc(F)n2)s1` [Example 153, N-[5-(6-fluoropyridin-2-yl)-4-(trifluoromethyl)-1,3-thiazol-2-yl]-4,6-dimethoxypyrimidine-5-carboxamide]: the IC50 is under 50 nM.
